Several values for one entry are separate records, joined by “and”; a condition that tells them apart may be missing. Equal values may be shown once.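 Dose response: 5 concentrations. Exposure: 48 h. Format: 96-well plates. Endpoint: linear interpolation; highest concentration if not reached. GI50 = concentration required for 50% inhibition of growth. At the TGI there is no net growth.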
Columns and labels:
Test in all cases: NCI-60 cell line screen, 48 h
[1] = tested on: SK-MEL-5 melanoma
[2] = tested on: OVCAR-3 ovarian
[3] = tested on: PC-3 prostate
[4] = tested on: SNB-75 CNS
[5] = tested on: A498 renal
[6] = tested on: SNB-19 CNS
[7] = tested on: OVCAR-5 ovarian
[8] = tested on: LOX IMVI melanoma
[9] = tested on: ACHN renal
[10] = tested on: OVCAR-4 ovarian

Question: With `CC(=O)Nc1cccc(-n2c(=O)n(C3CC3)c(=O)c3c(Nc4ccc(I)cc4F)n(C)c(=O)c(C)c32)c1` as the compound, how does the TGI [1] read?
Answer: 15.9 µM and > 10 µM

Question: What about the GI50 [2] of the same compound?
Answer: 8.33 µM and > 10 µM

Question: What about the TGI [2] of the same compound?
Answer: 60.9 µM and > 10 µM

Question: And the GI50 [3]?
Answer: 6.33 µM and > 10 µM

Question: And the TGI [3]?
Answer: 46.3 µM and > 10 µM

Question: What about the GI50 [4] of the same compound?
Answer: 3.2 µM and > 2.79 µM

Question: What about the TGI [4] of the same compound?
Answer: > 55.2 µM

Question: And the GI50 [5]?
Answer: < 0.01 µM and 0.00596 µM

Question: What about the TGI [5] of the same compound?
Answer: < 0.0306 µM and 0.0672 µM

Question: And the GI50 [6]?
Answer: 5.11 µM and > 2.09 µM

Question: What about the TGI [6] of the same compound?
Answer: > 100 µM

Question: And the GI50 [7]?
Answer: < 0.01 µM and 0.00472 µM

Question: And the TGI [7]?
Answer: 29.8 µM and > 10 µM

Question: And the GI50 [8]?
Answer: < 0.0122 µM and 0.0262 µM

Question: And the TGI [8]?
Answer: 5.46 µM and > 10 µM

Question: What about the GI50 [9] of the same compound?
Answer: 0.49 µM and 0.291 µM

Question: And the TGI [9]?
Answer: > 79.5 µM

Question: What about the GI50 [10] of the same compound?
Answer: 0.515 µM and 2.65 µM

Question: And the TGI [10]?
Answer: > 100 µM

Question: What does the source list for `COc1ccc(NC(=O)Nc2n[nH]c3ccccc23)cc1`?
Answer: GI50 [1]: > 100 µM; TGI [1]: > 100 µM; GI50 [2]: > 100 µM; TGI [2]: > 100 µM; GI50 [3]: > 100 µM; TGI [3]: > 100 µM; GI50 [4]: > 100 µM; TGI [4]: > 100 µM; GI50 [5]: > 100 µM; TGI [5]: > 100 µM; GI50 [6]: > 100 µM; TGI [6]: > 100 µM; GI50 [7]: > 100 µM; TGI [7]: > 100 µM; GI50 [8]: > 100 µM; TGI [8]: > 100 µM; GI50 [9]: > 100 µM; TGI [9]: > 100 µM; GI50 [10]: > 100 µM; TGI [10]: > 100 µM

Question: For `COc1cc(/C=C\[N+](=O)[O-])ccc1O`, which GI50 [1] is on record?
Answer: 1.77 µM

Question: And the TGI [1]?
Answer: 3.24 µM

Question: And the GI50 [2]?
Answer: 1.9 µM

Question: And the TGI [2]?
Answer: 3.36 µM

Question: What about the GI50 [3] of the same compound?
Answer: 8.63 µM

Question: And the TGI [3]?
Answer: 21.6 µM

Question: And the GI50 [4]?
Answer: 3.35 µM

Question: What about the TGI [4] of the same compound?
Answer: 17.2 µM

Question: What about the GI50 [5] of the same compound?
Answer: 12.3 µM

Question: What about the TGI [5] of the same compound?
Answer: 24.8 µM

Question: What about the GI50 [6] of the same compound?
Answer: 4.92 µM

Question: What about the TGI [6] of the same compound?
Answer: 18 µM

Question: And the GI50 [7]?
Answer: 3.94 µM

Question: What about the TGI [7] of the same compound?
Answer: 14.5 µM

Question: And the GI50 [8]?
Answer: 1.74 µM

Question: What about the TGI [8] of the same compound?
Answer: 3.39 µM

Question: What about the GI50 [9] of the same compound?
Answer: 2.36 µM

Question: What about the TGI [9] of the same compound?
Answer: 6.01 µM

Question: And the GI50 [10]?
Answer: 3.86 µM

Question: And the TGI [10]?
Answer: 14.1 µM

Question: Which results are given for `Cc1cc2nc3c4cc(Cl)ccc4n(CCN(C)C)c3nc2cc1C`?
Answer: GI50 [1]: 1.8 µM; TGI [1]: 3.22 µM; GI50 [2]: 1.92 µM; TGI [2]: 4.76 µM; GI50 [3]: 1.65 µM; TGI [3]: 4.74 µM; GI50 [4]: 0.738 µM; TGI [4]: 6.24 µM; GI50 [5]: 1.29 µM; TGI [5]: 2.63 µM; GI50 [6]: 1.92 µM; TGI [6]: 6.83 µM; GI50 [7]: 2 µM; TGI [7]: 5.2 µM; GI50 [8]: 1.13 µM; TGI [8]: 2.37 µM; GI50 [9]: 0.66 µM; TGI [9]: 2.01 µM; GI50 [10]: 1.72 µM; TGI [10]: 9.08 µM

Question: `O=C(c1cccs1)c1c(C(F)(F)F)n([O-])c2ccccc2[n+]1=O` was tested. Which GI50 [1] did it give?
Answer: 0.686 µM

Question: And the TGI [1]?
Answer: 1.33 µM

Question: What about the GI50 [2] of the same compound?
Answer: 0.744 µM

Question: And the TGI [2]?
Answer: 1.67 µM

Question: And the GI50 [3]?
Answer: 0.448 µM

Question: What about the TGI [3] of the same compound?
Answer: 2.24 µM

Question: What about the GI50 [4] of the same compound?
Answer: 2.94 µM

Question: What about the TGI [4] of the same compound?
Answer: 9.05 µM

Question: And the GI50 [5]?
Answer: 0.79 µM

Question: And the TGI [5]?
Answer: 2.4 µM

Question: And the GI50 [6]?
Answer: 5.67 µM

Question: What about the TGI [6] of the same compound?
Answer: 13.2 µM

Question: And the GI50 [7]?
Answer: 1.04 µM

Question: What about the TGI [7] of the same compound?
Answer: 2.49 µM

Question: What about the GI50 [8] of the same compound?
Answer: 0.448 µM

Question: What about the TGI [8] of the same compound?
Answer: 1.12 µM

Question: And the GI50 [9]?
Answer: 0.417 µM

Question: And the TGI [9]?
Answer: 1.09 µM

Question: What about the GI50 [10] of the same compound?
Answer: 0.941 µM

Question: And the TGI [10]?
Answer: 3.09 µM

Question: What does the source list for `COc1cc2c3c(cccc3c1)C(=O)N(CCN1CCCC1)C2=O`?
Answer: GI50 [1]: 1.56 µM; TGI [1]: 3.06 µM; GI50 [2]: 2.3 µM; TGI [2]: 6.29 µM; GI50 [3]: 2.91 µM; TGI [3]: 11.9 µM; GI50 [4]: 1.63 µM; TGI [4]: 3.65 µM; GI50 [5]: 1.96 µM; TGI [5]: 3.69 µM; GI50 [6]: 2.83 µM; TGI [6]: 58.6 µM; GI50 [7]: 4.12 µM; TGI [7]: > 100 µM; GI50 [8]: 1.68 µM; TGI [8]: 4.42 µM; GI50 [9]: 0.764 µM; TGI [9]: > 100 µM

Question: How did the TGI [1] turn out when `N/C(CC(=O)Nc1cc(C(F)(F)F)ccc1Cl)=N\O` was run?
Answer: > 100 µM

Question: And the TGI [2]?
Answer: > 100 µM

Question: And the TGI [3]?
Answer: > 100 µM

Question: What about the TGI [4] of the same compound?
Answer: > 100 µM

Question: What about the TGI [5] of the same compound?
Answer: > 100 µM

Question: And the TGI [6]?
Answer: > 100 µM

Question: And the TGI [7]?
Answer: > 100 µM

Question: And the TGI [8]?
Answer: > 100 µM

Question: What about the TGI [9] of the same compound?
Answer: > 100 µM

Question: What about the TGI [10] of the same compound?
Answer: > 100 µM

Question: What does the source list for `CN(C)CC(=O)N1CCC(c2ccc(NC(=O)c3ncc(C#N)[nH]3)c(C3=CCCCC3)c2)CC1`?
Answer: GI50 [1]: 3.5 µM; TGI [1]: 13.4 µM; GI50 [2]: 15.7 µM; TGI [2]: 29.6 µM; GI50 [3]: 8.38 µM; TGI [3]: 25.5 µM; GI50 [4]: 1.25 µM; TGI [4]: 9.12 µM; GI50 [5]: 9.71 µM; TGI [5]: 22.4 µM; GI50 [6]: 11.8 µM; TGI [6]: 25.2 µM; GI50 [7]: 10.8 µM; TGI [7]: 25.2 µM; GI50 [8]: 3.17 µM; TGI [8]: 12.7 µM; GI50 [9]: 5.42 µM; TGI [9]: 17.8 µM; GI50 [10]: 10.1 µM; TGI [10]: 23 µM

Question: For `COc1ccc(-c2nn(-c3cccc(Cl)c3)cc2C2CC(c3ccccc3)=NN2C(C)=O)cc1` (configuration not stated), which GI50 [1] is on record?
Answer: 30.3 µM

Question: What about the TGI [1] of the same compound?
Answer: > 100 µM

Question: What about the GI50 [2] of the same compound?
Answer: 5.42 µM

Question: And the TGI [2]?
Answer: 45.1 µM

Question: What about the GI50 [3] of the same compound?
Answer: 6.8 µM

Question: And the TGI [3]?
Answer: > 100 µM

Question: What about the GI50 [4] of the same compound?
Answer: 1.76 µM

Question: And the TGI [4]?
Answer: 5.99 µM

Question: And the GI50 [5]?
Answer: 3.33 µM

Question: And the TGI [5]?
Answer: 50.4 µM

Question: And the GI50 [6]?
Answer: 17 µM

Question: And the TGI [6]?
Answer: > 100 µM

Question: What about the GI50 [7] of the same compound?
Answer: > 100 µM

Question: And the TGI [7]?
Answer: > 100 µM

Question: What about the GI50 [8] of the same compound?
Answer: 11 µM

Question: What about the TGI [8] of the same compound?
Answer: > 100 µM

Question: And the GI50 [9]?
Answer: 3.48 µM

Question: What about the TGI [9] of the same compound?
Answer: 20 µM

Question: And the GI50 [10]?
Answer: 3.38 µM

Question: What about the TGI [10] of the same compound?
Answer: 29.2 µM

From PubChem BioAssay (NCI)
